Measurements from patent US10894807B2 (Siemens Medical Solutions USA, Inc., priority 2011, dated 2021).

Biological target: human PSMA (Homo sapiens (Human), UniProt Q04609)
Assay: Enzymatic assay for in vitro evaluation of PSMA inhibitors (fluorescent assay of PSMA activity, NAAG substrate, OPA detection of glutamate)
Assay type: biochemical

human PSMA, sequence (Q04609 whole entry): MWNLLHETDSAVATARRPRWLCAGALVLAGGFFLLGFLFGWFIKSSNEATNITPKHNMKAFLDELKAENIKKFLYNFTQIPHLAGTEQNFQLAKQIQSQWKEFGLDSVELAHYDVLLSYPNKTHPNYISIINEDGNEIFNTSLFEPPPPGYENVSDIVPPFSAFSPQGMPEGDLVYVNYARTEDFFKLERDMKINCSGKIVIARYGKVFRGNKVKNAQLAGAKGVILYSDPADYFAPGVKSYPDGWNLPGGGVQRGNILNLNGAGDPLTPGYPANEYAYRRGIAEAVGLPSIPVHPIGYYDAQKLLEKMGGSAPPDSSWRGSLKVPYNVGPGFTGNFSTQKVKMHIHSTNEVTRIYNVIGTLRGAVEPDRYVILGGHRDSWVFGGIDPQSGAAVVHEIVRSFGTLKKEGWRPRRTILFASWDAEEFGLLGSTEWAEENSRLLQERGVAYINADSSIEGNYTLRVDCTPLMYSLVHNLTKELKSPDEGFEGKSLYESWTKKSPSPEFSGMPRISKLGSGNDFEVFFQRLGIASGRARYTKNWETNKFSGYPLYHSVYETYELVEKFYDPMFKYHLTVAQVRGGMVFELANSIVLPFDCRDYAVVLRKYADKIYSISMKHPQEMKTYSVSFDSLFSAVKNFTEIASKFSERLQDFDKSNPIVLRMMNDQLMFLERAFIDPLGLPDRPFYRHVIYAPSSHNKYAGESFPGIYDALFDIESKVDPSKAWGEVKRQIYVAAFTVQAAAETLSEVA

| Ki [nM] | PSMA Blkg % (1.0 μM) [%] | Compound |
| --- | --- | --- |
|  | 5 | O=C(O)CC[C@H](NC(=O)C[C@@H](NC(=O)CCNC(=O)Cn1cc(CCCF)nn1)C(=O)O)C(=O)O [P243, (S)-2-((R)-3-Carboxy-3-(3-(2-(4-(3-fluoropropyl)-1H-1,2,3-triazol-1-yl)acetamido)propanamido)-propanamido)pentanedioic Acid] |
| 0.38 | 98 | O=C(O)CC[C@H](NC(=O)N[C@@H](CCCCNc1nc(-c2cccc(NC(=O)Cn3cc(CCCF)nn3)c2)cs1)C(=O)O)C(=O)O [P244, (S)-2-(3-((S)-1-Carboxy-5-(4-(3-(2-(4-(3-fluoropropyl)-1H-1,2,3-triazol-1-yl)acetamido)phenyl)thiazol-2-ylamino)pentyl)ureido)pentanedioic Acid] |
| 0.16 | 100 | O=C(O)CC[C@H](NC(=O)N[C@@H](CCCCNC(=O)c1cc(C(=O)NCCCC[C@H](NC(=O)N[C@@H](CCC(=O)O)C(=O)O)C(=O)O)cc(-n2cc(CCCF)nn2)c1)C(=O)O)C(=O)O [P246, (2S,2′S)-2,2′-(((((1S,1′S)-((5-(4-(3-Fluoropropyl)-1H-1,2,3-triazol-1-yl)isophthaloyl)bis(azanediyl))bis(1-carboxypentane-5,1-diyl))bis(azanediyl))bis(carbonyl))bis(azanediyl))dipentanedioic Acid] |
| 0.34 | 100 | O=C(O)CC[C@H](NC(=O)N[C@@H](CCCCNc1cc(OCCOCCOCCn2cc(CCCF)nn2)ccc1[N+](=O)[O-])C(=O)O)C(=O)O [P251, (S)-2-(3-((S)-1-Carboxy-5-((5-(2-(2-(2-(4-(3-fluoropropyl)-1H-1,2,3-triazol-1-yl)ethoxy)ethoxy)ethoxy)-2-nitrophenyl)amino)pentyl)ureido)pentanedioic Acid] |
| 0.4 | 95 | O=C(O)CC[C@H](NC(=O)N[C@@H](CCCCNc1nc(-c2cccc(NC(=O)CCOCCOCCOCCOCCNC(=O)Cn3cc(CCCF)nn3)c2)cs1)C(=O)O)C(=O)O [P254, (S)-2-(3-((S)-1-Carboxy-5-(4-(3-(1-(4-(3-fluoropropyl)-1H-1,2,3-triazol-1-yl)-2-oxo-6,9,12,15-tetraoxa-3-azaoctadecanamido)phenyl)thiazol-2-ylamino)pentyl)ureido)-pentanedioic Acid] |
|  | 62 | C[C@@](Cc1cccc(NC(=O)CCCn2cc(CCCF)nn2)c1)(NC(=O)N[C@@H](CCC(=O)O)C(=O)O)C(=O)O [P255, (S)-2-(3-((S)-2-Carboxy-1-(3-(4-(4-(3-fluoropropyl)-1H-1,2,3-triazol-1-yl)butanamido)-phenyl)propan-2-yl)ureido)pentanedioic Acid] |
|  | 98 | O=C(O)CC[C@H](NC(=O)N[C@@H](CCCCNC(=O)c1cc(C(=O)O)cc(-n2cc(CCCF)nn2)c1)C(=O)O)C(=O)O [P259, (S)-2-(3-((S)-1-Carboxy-5-(3-carboxy-5-(4-(3-fluoropropyl)-1H-1,2,3-triazol-1-yl)benzamido)pentyl)ureido)pentanedioic Acid] |
|  | 81 | CCN(CC)C(=O)c1cc(C(=O)NCCCC[C@H](NC(=O)N[C@@H](CCC(=O)O)C(=O)O)C(=O)O)cc(-n2cc(CCCF)nn2)c1 [P260, (S)-2-(3-((S)-1-Carboxy-5-(3-(diethylcarbamoyl)-5-(4-(3-fluoropropyl)-1H-1,2,3-triazol-1-yl)benzamido)pentyl)ureido)pentanedioic Acid] |
| 1 | 98 | O=C(O)CC[C@H](NC(=O)N[C@@H](CCCCNC(=O)CC[C@H](NC(=O)Cn1cc(CCCF)nn1)C(=O)NCCCC[C@H](NC(=O)N[C@@H](CCC(=O)O)C(=O)O)C(=O)O)C(=O)O)C(=O)O [P261, (3S,7S,14S,23S,27S)-14-(2-(4-(3-Fluoropropyl)-1H-1,2,3-triazol-1-yl)acetamido)-5,13,17,25-tetraoxo-4,6,12,18,24,26-hexaazanonacosane-1,3,7,23,27,29-hexacarboxylic Acid] |
|  | 96 | O=C(O)CC[C@H](NC(=O)N[C@@H](CCCCNC(=O)N1CCN(C(=O)c2cc(C(=O)O)cc(-n3cc(CCCF)nn3)c2)CC1)C(=O)O)C(=O)O [P262, (S)-2-(3-((S)-1-Carboxy-5-(4-(3-carboxy-5-(4-(3-fluoropropyl)-1H-1,2,3-triazol-1-yl)benzoyl)piperazine-1-carboxamido)pentyl)ureido)pentanedioic Acid] |

Second part, the molecule before the results:

| Compound | Ki [nM] | PSMA Blkg % (1.0 μM) [%] |
| --- | --- | --- |
| O=C(O)CC[C@H](NC(=O)N[C@@H](CCCCNc1cc(OCc2cn(CCF)nn2)ccc1[N+](=O)[O-])C(=O)O)C(=O)O [P242, (S)-2-(3-((S)-1-Carboxy-5-((5-((1-(2-fluoroethyl)-1H-1,2,3-triazol-4-yl)methoxy)-2-nitrophenyl)amino)pentyl)ureido)pentanedioic Acid] | 0.07 | 99 |
| O=C(O)CC[C@H](NC(=O)C[C@@H](NC(=O)CCNC(=O)c1ccc(-n2cc(CCCF)nn2)cc1)C(=O)O)C(=O)O [P245, (S)-2-((R)-3-Carboxy-3-(3-(4-(4-(3-fluoropropyl)-1H-1,2,3-triazol-1-yl)benzamido)propanamido)-propanamido)pentanedioic Acid] | 156 | 62 |
| O=C(O)CC[C@H](NC(=O)N[C@@H](CCCCn1c(=O)[nH]c2ccc(OCc3cn(CCF)nn3)cc21)C(=O)O)C(=O)O [P247, (S)-2-(3-((S)-1-Carboxy-5-(6-((1-(2-fluoroethyl)-1H-1,2,3-triazol-4-yl)methoxy)-2-oxo-2,3-dihydro-1H-benzo[d]imidazol-1-yl)pentyl)ureido)pentanedioic Acid] | 0.63 | 100 |
| O=C(O)CC[C@H](NC(=O)N[C@@H](Cc1ccc(NC(=O)N2CCN(C(=O)c3ccc(-n4cc(CCCF)nn4)cc3)CC2)cc1)C(=O)O)C(=O)O [P248, (S)-2-(3-((S)-1-Carboxy-2-(4-(4-(4-(4-(3-fluoropropyl)-1H-1,2,3-triazol-1-yl)benzoyl)piperazine-1-carboxamido)phenyl)ethyl)ureido)pentanedioic Acid] | 3.4 | 100 |
| O=C(O)CC[C@H](NC(=O)N[C@@H](CC1CCN(C(=S)Nc2ccc(-n3cc(CCCF)nn3)cc2)CC1)C(=O)O)C(=O)O [P250, (S)-2-(3-((S)-1-Carboxy-2-(1-((4-(4-(3-fluoropropyl)-1H-1,2,3-triazol-1-yl)phenyl)carbamothioyl)piperidin-4-yl)ethyl)ureido)pentanedioic Acid] | 4.1 | 96 |
| O=C(O)CCC(NC(=O)C[C@@H](NC(=O)CCNC(=O)c1cc(C(=O)NCCC(=O)N[C@H](CC(=O)NC(CCC(=O)O)C(=O)O)C(=O)O)cc(-n2cc(CCCF)nn2)c1)C(=O)O)C(=O)O (stereo partly drawn) [P252, (2S,2′S)-2,2′-(((3R,3′R)-3,3′-((3,3′-((5-(4-(3-Fluoropropyl)-1H-1,2,3-triazol-1-yl)isophthaloyl)bis(azanediyl))bis(propanoyl))bis(azanediyl))bis(3-carboxypropanoyl))bis(azanediyl))dipentanedioic Acid] | 94 | 59 |
| O=C(O)CC[C@H](NC(=O)N[C@@H](Cc1ccc(NC(=O)c2cc(C(=O)O)cc(-n3cc(CCCF)nn3)c2)cc1)C(=O)O)C(=O)O [P253, (S)-2-(3-((S)-1-Carboxy-2-(4-(3-carboxy-5-(4-(3-fluoropropyl)-1H-1,2,3-triazol-1-yl)benzamido)phenyl)ethyl)ureido)pentanedioic Acid] | 0.2 | 96 |
| C[C@@](Cc1cccc(NC(=O)Cn2cc(CCCF)nn2)c1)(NC(=O)N[C@@H](CCC(=O)O)C(=O)O)C(=O)O [P256, (S)-2-(3-((S)-2-Carboxy-1-(3-(2-(4-(3-fluoropropyl)-1H-1,2,3-triazol-1-yl)acetamido)-phenyl)propan-2-yl)ureido)pentanedioic Acid] |  | 27 |
| O=C(O)CCC(C(=O)O)N1C(=O)N[C@@H](CC2CCN(C(=O)c3ccc(-n4cc(CCCF)nn4)cc3)CC2)C1=O (stereo partly drawn) [P257, 2-((S)-4-((1-(4-(4-(3-Fluoropropyl)-1H-1,2,3-triazol-1-yl)benzoyl)piperidin-4-yl)methyl)-2,5-dioxoimidazolidin-1-yl)pentanedioic Acid] |  | 5 |
| NCCOCCOCCOCCOCCn1cc(-c2ccc(C(=O)NCCCC[C@H](NC(=O)N[C@@H](CCC(=O)O)C(=O)O)C(=O)O)cc2)nn1 [P258, (S)-2-(3-((S)-5-(4-(1-(14-Amino-3,6,9,12-tetraoxatetradecyl)-1H-1,2,3-triazol-4-yl)benzamido)-1-carboxypentyl)ureido)pentanedioic Acid] | 41 |  |
| O=C(O)CC[C@H](NC(=O)N[C@@H](CCCCNC(=O)N1CCN(C(=O)c2cc(C(=O)N3CCN(C(=O)NCCCC[C@@H](NC(=O)N[C@H](CCC(=O)O)C(=O)O)C(=O)O)CC3)cc(-n3cc(CCCF)nn3)c2)CC1)C(=O)O)C(=O)O [P263, (2S,2′S)-2,2′-(((((1S,1′S)-((4,4′-(5-(4-(3-Fluoropropyl)-1H-1,2,3-triazol-1-yl)-isophthaloyl)bis(piperazine-1,1′-carbonyl))bis(azanediyl))bis(1-carboxypentane-5,1-diyl))bis(azanediyl))bis(carbonyl))bis(azanediyl))dipentanedioic Acid] | 1.3 | 98 |
| CCN(CC)C(=O)c1cc(C(=O)N2CCN(C(=O)NCCCC[C@H](NC(=O)N[C@@H](CCC(=O)O)C(=O)O)C(=O)O)CC2)cc(-n2cc(CCCF)nn2)c1 [P264, (S)-2-(3-((S)-1-Carboxy-5-(4-(3-(diethylcarbamoyl)-5-(4-(3-fluoropropyl)-1H-1,2,3-triazol-1-yl)benzoyl)piperazine-1-carboxamido)pentyl)ureido)pentanedioic Acid] |  | 96 |
| O=C(O)CC[C@H](NC(=O)N[C@@H](CCCCNc1nc(F)ccc1[N+](=O)[O-])C(=O)O)C(=O)O [P265, (S)-2-(3-((S)-1-Carboxy-5-((6-fluoro-3-nitropyridin-2-yl)amino)pentyl)ureido)pentanedioic Acid] |  | 97 |
